# Reference: ChEMBL document CHEMBL3351479, “Novel acylureidoindolin-2-one derivatives as dual Aurora B/FLT3 inhibitors for the treatment of acute myeloid leukemia” (Eur J Med Chem, 2014)
# Experiments:
# [1] = test system: MV4-11; experiment: Cytotoxicity against human MV4-11 cells assessed as cell viability after 48 hrs by MTT assay; assay type: functional, cell-based; settings: Homo sapiens, MV4-11, 48 h
# [2] = test system: MOLM-13; experiment: Cytotoxicity against human MOLM13 cells assessed as cell viability after 48 hrs by MTT assay; assay type: functional, cell-based; settings: MOLM-13, 48 h
# [3] = test system: THP-1; experiment: Cytotoxicity against human THP1 cells assessed as cell viability after 48 hrs by MTT assay; assay type: functional, cell-based; settings: Homo sapiens, THP-1, 48 h
# [4] = Cytotoxicity against human HL60 cells assessed as cell viability after 48 hrs by MTT assay; assay type: functional, cell-based; settings: HL-60, 48 h
# [5] = target: Aurora kinase B (Homo sapiens, UniProt Q96GD4); experiment: Inhibition of Aurora B (unknown origin) using HLRRASLG substrate at 1 uM
# Sequence of Aurora kinase B (Q96GD4 whole entry): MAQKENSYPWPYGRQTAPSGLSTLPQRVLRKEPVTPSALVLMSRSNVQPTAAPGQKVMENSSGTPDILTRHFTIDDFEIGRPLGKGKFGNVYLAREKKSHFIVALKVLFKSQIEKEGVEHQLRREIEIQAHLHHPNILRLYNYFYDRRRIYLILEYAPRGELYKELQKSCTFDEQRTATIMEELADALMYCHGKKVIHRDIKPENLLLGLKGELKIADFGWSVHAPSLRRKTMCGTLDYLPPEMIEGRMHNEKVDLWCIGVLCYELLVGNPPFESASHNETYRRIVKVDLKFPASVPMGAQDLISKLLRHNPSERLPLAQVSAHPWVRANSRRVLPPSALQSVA
# [6] = target: Receptor-type tyrosine-protein kinase FLT3 (Homo sapiens) (UniProt P36888); experiment: Inhibition of FLT3 (unknown origin) using EAIYAAPFAKKK substrate at 1 uM
# [7] = test system: MV4-11; experiment: Cytotoxicity against human MV4-11 cells assessed as cell viability at 1 uM after 48 hrs by MTT assay; assay type: functional; settings: MV4-11, 48 h, read-out: Activity
# [8] = test system: MOLM-13; experiment: Cytotoxicity against human MOLM13 cells assessed as cell viability at 1 uM after 48 hrs by MTT assay; assay type: functional; settings: MOLM-13, 48 h, read-out: Activity
# [9] = test system: THP-1; experiment: Cytotoxicity against human THP1 cells assessed as cell viability at 1 uM after 48 hrs by MTT assay; assay type: functional; settings: THP-1, 48 h, read-out: Activity
# [10] = Cytotoxicity against human HL60 cells assessed as cell viability at 1 uM after 48 hrs by MTT assay; assay type: functional; settings: HL-60, 48 h, read-out: Activity
# [11] = target: T1, Receptor-type tyrosine-protein kinase FLT3 (Homo sapiens, UniProt P36888); experiment: Inhibition of FLT3 (unknown origin) using EAIYAAPFAKKK substrate
# T1 sequence (P36888 whole entry): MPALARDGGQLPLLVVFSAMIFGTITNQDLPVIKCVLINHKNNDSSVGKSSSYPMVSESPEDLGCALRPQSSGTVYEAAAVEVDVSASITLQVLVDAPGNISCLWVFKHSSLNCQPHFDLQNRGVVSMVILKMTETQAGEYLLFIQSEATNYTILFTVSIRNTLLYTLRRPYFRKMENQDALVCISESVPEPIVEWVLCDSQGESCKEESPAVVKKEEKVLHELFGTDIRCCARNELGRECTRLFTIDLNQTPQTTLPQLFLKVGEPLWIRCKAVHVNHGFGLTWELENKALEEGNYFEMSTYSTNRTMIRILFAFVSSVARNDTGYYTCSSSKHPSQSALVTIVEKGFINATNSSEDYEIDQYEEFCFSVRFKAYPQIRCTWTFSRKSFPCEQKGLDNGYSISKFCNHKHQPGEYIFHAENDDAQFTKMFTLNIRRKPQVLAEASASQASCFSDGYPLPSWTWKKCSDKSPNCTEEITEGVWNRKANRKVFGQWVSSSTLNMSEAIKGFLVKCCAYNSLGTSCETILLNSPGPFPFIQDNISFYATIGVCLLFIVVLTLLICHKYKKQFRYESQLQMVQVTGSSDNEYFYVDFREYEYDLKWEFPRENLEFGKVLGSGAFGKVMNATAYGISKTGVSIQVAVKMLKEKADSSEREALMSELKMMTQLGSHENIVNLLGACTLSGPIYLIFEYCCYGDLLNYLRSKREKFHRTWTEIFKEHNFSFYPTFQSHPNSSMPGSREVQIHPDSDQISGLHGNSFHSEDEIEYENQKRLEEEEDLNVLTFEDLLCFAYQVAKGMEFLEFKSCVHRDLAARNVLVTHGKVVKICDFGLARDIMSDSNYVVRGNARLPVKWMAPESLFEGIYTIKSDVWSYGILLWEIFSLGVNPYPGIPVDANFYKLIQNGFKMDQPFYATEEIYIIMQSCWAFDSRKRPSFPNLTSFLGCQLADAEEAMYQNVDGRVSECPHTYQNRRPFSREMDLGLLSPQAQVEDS
Compound,IC50 [1] [nM],IC50 [2] [nM],IC50 [3] [nM],IC50 [4] [nM],inhibition [5] [%],inhibition [6] [%],viability at 1 µM [7] [%],viability at 1 µM [8] [%],viability at 1 µM [9] [%],viability at 1 µM [10] [%],IC50 [11] [nM]
COc1ccc(C(=O)NC(=O)Nc2ccc3c(c2)NC(=O)/C3=C\c2[nH]c(C)c(CCC(=O)N3CCN(C)CC3)c2C)c(F)c1,11,9.2,65,15.7,,,,,,,
CCN(CCO)CCCOc1ccc2c(Nc3cc(CC(=O)Nc4cccc(F)c4)[nH]n3)ncnc2c1 [DEFOSBARASERTIB],8.6,9.7,25.1,12.7,,,,,,,
O=C(NC(=O)c1ccc(Cl)c(Cl)c1)Nc1ccc2c(c1)NC(=O)/C2=C\c1ccc[nH]1,31.6,29,90.9,35,,,,,,,
COc1ccc(C(=O)NC(=O)Nc2ccc3c(c2)NC(=O)/C3=C/c2ccc(Cl)cc2)cc1,> 500,> 500,> 500,> 500,13,6,97,101,83,77,
COc1ccc(C(=O)NC(=O)Nc2ccc3c(c2)NC(=O)/C3=C/c2ccc(O)cc2)cc1,377,351,> 500,485,63,,,,54,,> 1000
COc1ccc(C(=O)NC(=O)Nc2cc3c(cc2F)/C(=C/c2[nH]c(C)c(C(=O)O)c2C)C(=O)N3)c(F)c1,35.9,17.8,76.3,28.6,,,,,,,
COc1ccc(C(=O)NC(=O)Nc2ccc3c(c2)NC(=O)/C3=C\c2[nH]c(C)c(C(=O)N3CCOCC3)c2C)c(F)c1,16.8,10.8,102,24,,,,,,,
COc1ccc(C(=O)NC(=O)Nc2cc3c(cc2F)/C(=C/c2[nH]c(C)c(CCC(=O)O)c2C)C(=O)N3)cc1,26.1,30.1,64.7,28.8,,,,,,,> 1000
COc1ccc(C(=O)NC(=O)Nc2ccc3c(c2)NC(=O)/C3=C\c2[nH]c(C)cc2C)cc1,62.8,42.8,116,45.8,,,,,,,
COc1ccc(C(=O)NC(=O)Nc2ccc3c(c2)NC(=O)/C3=C/c2ccccc2)cc1,> 500,> 500,> 500,> 500,61,34,64,73,76,64,
COc1ccc(C(=O)NC(=O)Nc2ccc3c(c2)NC(=O)/C3=C/c2ccc(Cl)c(Cl)c2)cc1,> 500,> 500,> 500,> 500,9,19,71,69,68,63,
O=C(NC(=O)c1ccc(Cl)cc1)Nc1ccc2c(c1)NC(=O)/C2=C\c1ccc[nH]1,19.3,19.1,81.2,21.6,,,,,,,
COc1ccc(C(=O)NC(=O)Nc2ccc3c(c2)NC(=O)/C3=C\c2[nH]c(C)c(C(=O)NCCN(C)C)c2C)c(F)c1,8.1,5.3,63.7,14.1,,,,,,,
COc1ccc(C(=O)NC(=O)Nc2cc3c(cc2F)/C(=C/c2[nH]c(C)c(CCC(=O)O)c2C)C(=O)N3)c(F)c1,6.5,2.3,55.9,8.9,,,,,,,
COc1ccc(C(=O)NC(=O)Nc2ccc3c(c2)/C(=C/c2ccc[nH]2)C(=O)N3)cc1,256,222,373,301,39,,,,,,
CN(C)c1ccc(C(=O)NC(=O)Nc2ccc3c(c2)NC(=O)/C3=C\c2ccc[nH]2)cc1,261,260,262,269,,,,,,,
COc1ccc(C(=O)NC(=O)Nc2ccc3c(c2)NC(=O)/C3=C\c2[nH]c(C)c(C(=O)N3CCN(C)CC3)c2C)c(F)c1,10.6,6.9,95.1,15.7,,,,,,,

Compound,IC50 [1] [nM],IC50 [2] [nM],IC50 [3] [nM],IC50 [4] [nM],inhibition [5] [%],inhibition [6] [%],viability at 1 µM [7] [%],viability at 1 µM [8] [%],viability at 1 µM [9] [%],viability at 1 µM [10] [%],IC50 [11] [nM]
COc1ccc(C(=O)NC(=O)Nc2ccc3c(c2)NC(=O)/C3=C\c2[nH]c(C)c(CC(=O)O)c2C)cc1,4.2,3.1,69,8.1,,,,,,,
COc1ccc(C(=O)NC(=O)Nc2ccc3c(c2)NC(=O)/C3=C/c2ccc(N(C)C)cc2)cc1,45.5,42.5,88.9,50.4,59,40,,,,,
O=C(NC(=O)c1ccccc1F)Nc1ccc2c(c1)NC(=O)/C2=C\c1ccc[nH]1,234,232,331,268,,,,,,,
COc1ccc(C(=O)NC(=O)Nc2ccc3c(c2)NC(=O)/C3=C\c2[nH]c(C)c(CCC(=O)O)c2C)c(F)c1,6.1,4,61.3,16.7,,,,,,,
CCOC(=O)CCc1c(C)[nH]c(/C=C2\C(=O)Nc3cc(NC(=O)NC(=O)c4ccc(OC)cc4F)ccc32)c1C,15.1,10.9,53.9,29.9,,,,,,,> 1000
CCN(CC)CCNC(=O)c1c(C)[nH]c(/C=C2\C(=O)Nc3cc(NC(=O)NC(=O)c4ccc(OC)cc4F)ccc32)c1C,17.7,12.9,41.2,20.3,,,,,,,
O=C(NC(=O)c1ccccc1)Nc1ccc2c(c1)NC(=O)/C2=C\c1ccc[nH]1,240,238,293,250,,,,,,,> 1000
COc1ccc(C(=O)NC(=O)Nc2cccc3c2/C(=C/c2ccc[nH]2)C(=O)N3)cc1,357,303,356,334,11,,,,,,
COc1ccc(/C=C2/C(=O)Nc3cc(NC(=O)NC(=O)c4ccc(OC)cc4)ccc32)cc1,228,238,382,336,56,43,,,,,
COc1cc(OC)cc(C(=O)NC(=O)Nc2ccc3c(c2)NC(=O)/C3=C\c2ccc[nH]2)c1,150,114,300,251,,,,,,,> 1000
Cc1ccc(C(=O)NC(=O)Nc2ccc3c(c2)NC(=O)/C3=C\c2ccc[nH]2)cc1,285,212,356,301,,,,,,,
COc1ccc(C(=O)NC(=O)Nc2cccc3c2NC(=O)/C3=C\c2ccc[nH]2)cc1,> 500,> 500,> 500,488,7,7,78,72,53,,
CCN(CC)CCNC(=O)c1c(C)[nH]c(/C=C2\C(=O)Nc3ccc(F)cc32)c1C [SUNITINIB],24.3,17.7,45.7,36.8,,,,,,,
O=C(NC(=O)c1ccc(Cl)c(C(F)(F)F)c1)Nc1ccc2c(c1)NC(=O)/C2=C\c1ccc[nH]1,14.1,11.1,68.8,23.2,,,,,,,
COc1ccc(C(=O)NC(=O)Nc2ccc3c(c2)NC(=O)/C3=C\c2[nH]c(C)c(CCC(=O)N3CCOCC3)c2C)c(F)c1,17.9,16.1,70.3,31.2,,,,,,,
O=C(NC(=O)c1ccc(C(F)(F)F)cc1)Nc1ccc2c(c1)NC(=O)/C2=C\c1ccc[nH]1,191,196,326,293,,,,,,,
